This passage reports EC50 results from patent publication US10533000B2, “Metabotrophic glutamate receptor 5 modulators and methods of use thereof” (Sunovion Pharmaceuticals, Inc., priority 2011, dated 2020).

The experiment has as its target mGluR5 (Homo sapiens, UniProt P41594). Put plainly: mGluR5 positive allosteric modulator (PAM) functional assay. It is filed as cell-based.

Each structure is given as a SMILES string.

Sequence of mGluR5 (P41594 21-1212): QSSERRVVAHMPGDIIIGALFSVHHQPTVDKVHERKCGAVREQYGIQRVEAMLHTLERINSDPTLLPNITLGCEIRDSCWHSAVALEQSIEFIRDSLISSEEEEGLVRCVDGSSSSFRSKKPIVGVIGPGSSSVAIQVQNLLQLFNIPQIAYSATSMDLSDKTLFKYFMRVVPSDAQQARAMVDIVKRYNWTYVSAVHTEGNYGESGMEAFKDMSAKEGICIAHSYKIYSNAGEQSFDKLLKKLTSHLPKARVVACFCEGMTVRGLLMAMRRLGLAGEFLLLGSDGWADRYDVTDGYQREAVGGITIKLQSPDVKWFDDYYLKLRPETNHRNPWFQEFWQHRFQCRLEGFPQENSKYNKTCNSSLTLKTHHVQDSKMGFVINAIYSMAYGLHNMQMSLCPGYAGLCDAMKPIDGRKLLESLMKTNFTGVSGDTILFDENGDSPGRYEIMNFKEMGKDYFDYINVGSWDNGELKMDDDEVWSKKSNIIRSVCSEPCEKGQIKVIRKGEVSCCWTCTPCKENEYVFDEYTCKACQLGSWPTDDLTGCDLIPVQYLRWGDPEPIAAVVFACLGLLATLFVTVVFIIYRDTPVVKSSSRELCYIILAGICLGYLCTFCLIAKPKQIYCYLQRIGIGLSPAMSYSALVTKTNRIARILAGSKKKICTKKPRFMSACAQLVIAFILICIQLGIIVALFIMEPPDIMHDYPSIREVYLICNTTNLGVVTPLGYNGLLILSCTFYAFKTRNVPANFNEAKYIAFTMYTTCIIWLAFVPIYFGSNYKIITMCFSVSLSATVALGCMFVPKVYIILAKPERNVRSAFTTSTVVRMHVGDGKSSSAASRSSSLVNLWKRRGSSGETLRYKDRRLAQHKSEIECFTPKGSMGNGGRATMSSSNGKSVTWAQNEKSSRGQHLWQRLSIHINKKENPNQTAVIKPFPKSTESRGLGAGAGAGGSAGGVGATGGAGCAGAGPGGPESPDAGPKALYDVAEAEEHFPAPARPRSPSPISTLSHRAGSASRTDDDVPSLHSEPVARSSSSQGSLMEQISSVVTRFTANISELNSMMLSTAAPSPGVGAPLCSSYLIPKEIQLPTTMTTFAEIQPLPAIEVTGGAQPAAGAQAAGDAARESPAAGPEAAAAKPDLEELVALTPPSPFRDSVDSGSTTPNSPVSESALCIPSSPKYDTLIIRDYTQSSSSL

The EC50 is the concentration giving half of the maximal effect. A high value points to weaker potency. In turn, `CC(C)c1nc(-c2ccc(C#Cc3cccc(F)c3)cc2)no1` [Compound 24, 3-(4-((3-fluorophenyl)ethynyl)phenyl)-5-isopropyl-1,2,4-oxadiazole] gave a concentration for a half-maximal effect (EC50) of 300 to 1000 nM. `CCC(OC)c1nc(-c2ccc(C#Cc3cccc(F)c3)cc2)no1` (stereo not drawn) [Compound 44, 3-(4-((3-fluorophenyl)ethynyl)phenyl)-5-(1-methoxypropyl)-1,2,4-oxadiazole] registered an EC50 of 100 to 300 nM. For `CN1CCCC1c1nc(-c2ccc(C#Cc3ccccn3)cc2)no1` (stereo not drawn) [Compound 70, 5-(1-methylpyrrolidin-2-yl)-3-(4-(pyridin-2-ylethynyl)phenyl)-1,2,4-oxadiazole], the 50% effective concentration (EC50) is at most 30 nM. Then `CCC(OC)c1nc(-c2ccc(C#Cc3cccc(F)c3)cn2)no1` (stereo not drawn) [Compound 97, 3-(5-((3-fluorophenyl)ethynyl)pyridin-2-yl)-5-(1-methoxypropyl)-1,2,4-oxadiazole], with at most 30 nM.

`CNC(C)c1nc(-c2ccc(C#Cc3cccc(F)c3)cn2)no1` (stereo not drawn) [Compound 107, 1-(3-(5-((3-fluorophenyl)ethynyl)pyridin-2-yl)-1,2,4-oxadiazol-5-yl)-N-methylethanamine] gave an EC50 of 30 to 100 nM. In turn, `C(#Cc1ccccn1)c1ccc(-c2noc(C3CC4CCN3C4)n2)nc1` (stereo not drawn) [Compound 174, 5-(1-azabicyclo[2.2.1]heptan-2-yl)-3-(5-(pyridin-2-ylethynyl)pyridin-2-yl)-1,2,4-oxadiazole] registered an EC50 of 100 to 300 nM. The result for `CN1CCC1c1nc(-c2ccc(C#Cc3ccccn3)cn2)no1` (stereo not drawn) [Compound 150, 5-(1-methylazetidin-2-yl)-3-(5-(pyridin-2-ylethynyl)pyridin-2-yl)-1,2,4-oxadiazole] reads 300 to 1000 nM. On to `CC[C@H](C)c1nc(-c2ccc(C#Cc3cccc(F)c3)cc2)no1` (single isomer, unassigned) [Compound 30], for which the concentration for a half-maximal effect (EC50) fell in the range of 300 to 1000 nM. Then `CN1C[C@H](F)C[C@@H]1c1nc(-c2ccc(C#Cc3ccccn3)cn2)no1` [Compound 169, 5-((2R,4R)-4-fluoro-1-methylpyrrolidin-2-yl)-3-(5-(pyridin-2-ylethynyl)pyridin-2-yl)-1,2,4-oxadiazole], with 300 to 1000 nM; and `CN1CC[C@@H]2C[C@@]21c1nc(-c2ccc(C#Cc3ccccn3)cn2)no1` [Compound 172, 5-((1S,5R)-2-methyl-2-azabicyclo[3.1.0]hexan-1-yl)-3-(5-(pyridin-2-ylethynyl)pyridin-2-yl)-1,2,4-oxadiazole], with 300 to 1000 nM; and `COC(C)c1nc(-c2ccc(C#Cc3ccncc3)cn2)no1` (stereo not drawn) [Compound 159, 5-(1-methoxyethyl)-3-(5-(pyridin-4-ylethynyl)pyridin-2-yl)-1.2.4-oxadiazole], with 100 to 300 nM.

`CC(c1nc(-c2ccc(C#Cc3ccccn3)cn2)no1)N1CCCC1(C)C` (stereo not drawn) [Compound 139, 5-(1-(2,2-dimethylpyrrolidin-1-yl)ethyl)-3-(5-(pyridin-2-ylethynyl)pyridin-2-yl)-1,2,4-oxadiazole] showed a concentration for a half-maximal effect (EC50) of 30 to 100 nM.

The compound `CCC(NC)c1nc(-c2ccc(C#Cc3cccc(F)c3)cn2)no1` (stereo not drawn) [Compound 115, 1-(3-(5-((3-fluorophenyl)ethynyl)pyridin-2-yl)-1,2,4-oxadiazol-5-yl)-N-methylpropan-1-amine] displayed an EC50 of 30 to 100 nM. For `CC(C)(C)c1nc(-c2ccc(C#Cc3cccc(F)c3)cc2)no1` [Compound 27, 5-(tert-butyl)-3-(4-((3-fluorophenyl)ethynyl)phenyl)-1,2,4-oxadiazole], the concentration for a half-maximal effect (EC50) lay in the range of 100 to 300 nM. Then `CN1C[C@@H](F)C[C@@H]1c1nc(-c2ccc(C#Cc3ccccn3)cn2)no1` [Compound 156, 5-((2R,4S)-4-fluoro-1-methylpyrrolidin-2-yl)-3-(5-(pyridin-2-ylethynyl)pyridin-2-yl)-1,2,4-oxadiazole], with 300 to 1000 nM; and `Fc1cccc(C#Cc2ccc(-c3noc(C4CCCC4)n3)cn2)c1` [Compound 83, 5-cyclopentyl-3-(6-((3-fluorophenyl)ethynyl)pyridin-3-yl)-1,2,4-oxadiazole], with 100 to 300 nM; and `CCC(c1nc(-c2ccc(C#Cc3ccccn3)cn2)no1)N(C)C` (stereo not drawn) [Compound 148, N,N-dimethyl-1-(3-(5-(pyridin-2-ylethynyl)pyridin-2-yl)-1,2,4-oxadiazol-5-yl)propan-1-amine], with 30 to 100 nM. Then `Fc1cccc(C#Cc2ccc(-c3noc(C4CCCO4)n3)cc2)c1` (stereo not drawn) [Compound 39, 3-(4-((3-fluorophenyl)ethynyl)phenyl)-5-(tetrahydrofuran-2-yl)-1,2,4-oxadiazole], with 300 to 1000 nM; and `CC(C)NC(C)c1nc(-c2ccc(C#Cc3cccc(F)c3)cn2)no1` (stereo not drawn) [Compound 110, N-(1-(3-(5-((3-fluorophenyl)ethynyl)pyridin-2-yl)-1,2,4-oxadiazol-5-yl)ethyl)propan-2-amine], with 30 to 100 nM. In turn, `CCC(C)c1nc(-c2ccc(C#Cc3cccc(F)c3)cn2)no1` (stereo not drawn) [Compound 94, 5-(sec-butyl)-3-(5-((3-fluorophenyl)ethynyl)pyridin-2-yl)-1,2,4-oxadiazole] showed an EC50 of at most 30 nM. Then `CN(C)C(C)(C)c1nc(-c2ccc(C#Cc3cccc(F)c3)cn2)no1` [Compound 113, 2-(3-(5-((3-fluorophenyl)ethynyl)pyridin-2-yl)-1,2,4-oxadiazol-5-yl)-N,N-dimethylpropan-2-amine], with at most 30 nM; and `C(#Cc1ccc(-c2noc(C3CCCN3)n2)cc1)c1ccncc1` (stereo not drawn) [Compound 77, 3-(4-(pyridin-4-ylethynyl)phenyl)-5-(pyrrolidin-2-yl)-1,2,4-oxadiazole], with 100 to 300 nM.

As for `CCC(NC1CC1)c1nc(-c2ccc(C#Cc3cccc(F)c3)cn2)no1` (stereo not drawn) [Compound 117, N-(1-(3-(5-((3-fluorophenyl)ethynyl)pyridin-2-yl)-1,2,4-oxadiazol-5-yl)propyl)cyclopropanamine], the 50% effective concentration (EC50) is at most 30 nM.

For the compound `CC(c1nc(-c2ccc(C#Cc3cccc(F)c3)cc2)no1)N1CCCC1` (stereo not drawn) [Compound 53, 3-(4-((3-fluorophenyl)ethynyl)phenyl)-5-(1-(pyrrolidin-1-yl)ethyl)-1,2,4-oxadiazole], the EC50 was 300 to 1000 nM. Then `CN(C)Cc1nc(-c2ccc(C#Cc3cccc(F)c3)cn2)no1` [Compound 103, 1-(3-(5-((3-fluorophenyl)ethynyl)pyridin-2-yl)-1,2,4-oxadiazol-5-yl)-N,N-dimethylmethanamine], with 30 to 100 nM; and `CCC(c1nc(-c2ccc(C#Cc3cccc(F)c3)cn2)no1)N(C)C` (stereo not drawn) [Compound 116, 1-(3-(5-((3-fluorophenyl)ethynyl)pyridin-2-yl)-1,2,4-oxadiazol-5-yl)-N,N-dimethylpropan-1-amine], with at most 30 nM; and `CC(C)N1CCCC1c1nc(-c2ccc(C#Cc3cccc(F)c3)cc2)no1` (stereo not drawn) [Compound 49, 3-(4-((3-fluorophenyl)ethynyl)phenyl)-5-(1-isopropylpyrrolidin-2-yl)-1,2,4-oxadiazole], with 300 to 1000 nM. `C(#Cc1ccccn1)c1ccc(-c2noc(C3CCCN3)n2)nc1` (stereo not drawn) [Compound 151, 3-(5-(pyridin-2-ylethynyl)pyridin-2-yl)-5-(pyrrolidin-2-yl)-1,2,4-oxadiazole] registered an EC50 of 300 to 1000 nM. For the compound `CCC(OC)c1nc(-c2ccc(C#Cc3ccccn3)cn2)no1` (stereo not drawn) [Compound 138, 5-(1-methoxypropyl)-3-(5-(pyridin-2-ylethynyl)pyridin-2-yl)-1,2,4-oxadiazole], the 50% effective concentration (EC50) was 100 to 300 nM. `CN1CCCC1c1nc(-c2ccc(C#Cc3ccncc3)cc2)no1` (stereo not drawn) [Compound 78, 5-(1-methylpyrrolidin-2-yl)-3-(4-(pyridin-4-ylethynyl)phenyl)-1,2,4-oxadiazole] had an EC50 of at most 30 nM.

In the case of `CN1CCCC1c1nc(-c2ccc(C#Cc3cccc(F)c3)cc2)no1` (stereo not drawn) [Compound 47, 3-(4-((3-fluorophenyl)ethynyl)phenyl)-5-(1-methylpyrrolidin-2-yl)-1,2,4-oxadiazole], the EC50 lay within 100 to 300 nM. As to `CN(C)C(C)(C)c1nc(-c2ccc(C#Cc3ccccn3)cn2)no1` [Compound 145, N,N-dimethyl-2-(3-(5-(pyridin-2-ylethynyl)pyridin-2-yl)-1,2,4-oxadiazol-5-yl)propan-2-amine], the EC50 was 30 to 100 nM. Take `CC(c1nc(-c2ccc(C#Cc3ccccn3)cn2)no1)N(C)C` (stereo not drawn) [Compound 143, N,N-dimethyl-1-(3-(5-(pyridin-2-ylethynyl)pyridin-2-yl)-1,2,4-oxadiazol-5-yl)ethanamine]: the concentration for a half-maximal effect (EC50) was 100 to 300 nM. Turning to `CCC(OC)c1nc(-c2ccc(C#Cc3ccncc3)nc2)no1` (stereo not drawn) [Compound 93], the concentration for a half-maximal effect (EC50) was 30 to 100 nM. The result for `Fc1cccc(C#Cc2ccc(-c3noc(C4CCCN4)n3)nc2)c1` (stereo in doubt) [Compound 120, (R)-3-(5-((3-fluorophenyl)ethynyl)pyridin-2-yl)-5-(pyrrolidin-2-yl)-1,2,4-oxadiazole] reads 100 to 300 nM; that for `CN1C[C@H](O)C[C@@H]1c1nc(-c2ccc(C#Cc3cccc(F)c3)cn2)no1` [Compound 132, (3R,5R)-5-(3-(5-((3-fluorophenyl)ethynyl)pyridin-2-yl)-1,2,4-oxadiazol-5-yl)-1-methylpyrrolidin-3-ol], 100 to 300 nM. Compound `CC[C@H](C)c1nc(-c2ccc(C#Cc3ccncc3)cc2)no1` (single isomer, unassigned) [Compound 72] showed an EC50 of 100 to 300 nM. Compound `CNC(C)(C)c1nc(-c2ccc(C#Cc3ccccn3)cn2)no1` [Compound 144, N-methyl-2-(3-(5-(pyridin-2-ylethynyl)pyridin-2-yl)-1,2,4-oxadiazol-5-yl)propan-2-amine] returned an EC50 of 300 to 1000 nM. The result for `CCC(C)c1nc(-c2ccc(C#Cc3ccccn3)cc2)no1` (stereo not drawn) [Compound 67] reads at most 30 nM; that for `COC(C)c1nc(-c2ccc(C#Cc3ccncc3)nc2)no1` (stereo not drawn) [Compound 92, 5-(1-methoxyethyl)-3-(6-(pyridin-4-ylethynyl)pyridin-3-yl)-1,2,4-oxadiazole], 100 to 300 nM.

As to `CN(C)C1(c2nc(-c3ccc(C#Cc4cccc(F)c4)cn3)no2)CC1` [Compound 118, 1-(3-(5-((3-fluorophenyl)ethynyl)pyridin-2-yl)-1,2,4-oxadiazol-5-yl)-N,N-dimethylcyclopropanamine], the EC50 was at most 30 nM.

In the case of `COCCc1nc(-c2ccc(C#Cc3cccc(F)c3)cc2)no1` [Compound 40, 3-(4-((3-fluorophenyl)ethynyl)phenyl)-5-(2-methoxyethyl)-1,2,4-oxadiazole], the EC50 was 300 to 1000 nM.
